Like-named read-outs stand apart in the source and are kept apart here.
Tests used:
CCRF-CEM = test: NCI-60 SRB screen: leukemia CCRF-CEM; type: cell-based; conditions: Homo sapiens, 48 h
K-562 = test: NCI-60 SRB screen: leukemia K-562; type: cell-based, human; conditions: K-562
MOLT-4 = test: NCI-60 SRB screen: leukemia MOLT-4; type: cell-based; conditions: Homo sapiens, 48 h, MOLT-4
RPMI-8226 = test: NCI-60 SRB screen: leukemia RPMI-8226; type: cell-based; conditions: Homo sapiens, 48 h, RPMI-8226
EKVX = test: NCI-60 SRB screen: non-small cell lung cancer EKVX; type: cell-based, human
HOP-62 = test: NCI-60 SRB screen: non-small cell lung cancer HOP-62; type: cell-based, human; conditions: HOP-62
HOP-92 = test: NCI-60 SRB screen: non-small cell lung cancer HOP-92; type: cell-based, human; conditions: HOP-92
NCI-H226 = test: NCI-60 SRB screen: non-small cell lung cancer NCI-H226; type: cell-based, human; conditions: NCI-H226
NCI-H23 = test: NCI-60 SRB screen: non-small cell lung cancer NCI-H23; type: cell-based, human; conditions: NCI-H23
NCI-H522 = test: NCI-60 SRB screen: non-small cell lung cancer NCI-H522; type: cell-based, human; conditions: NCI-H522
HCC-2998 = test: NCI-60 SRB screen: colon cancer HCC-2998; type: cell-based, human; conditions: HCC-2998
HCT-116 = test: NCI-60 SRB screen: colon cancer HCT-116; type: cell-based; conditions: Homo sapiens, 48 h, HCT-116
SW-620 = test: NCI-60 SRB screen: colon cancer SW-620; type: cell-based; conditions: Homo sapiens, 48 h, SW-620
SNB-75 = test: NCI-60 SRB screen: CNS cancer SNB-75; type: cell-based, human; conditions: SNB-75
U251 = test: NCI-60 SRB screen: CNS cancer U251; type: cell-based; conditions: Homo sapiens, U251
MDA-MB-435 = test: NCI-60 SRB screen: melanoma MDA-MB-435; type: cell-based, human; conditions: MDA-MB-435
SK-MEL-28 = test: NCI-60 SRB screen: melanoma SK-MEL-28; type: cell-based, human; conditions: SK-MEL-28
SK-MEL-5 = test: NCI-60 SRB screen: melanoma SK-MEL-5; type: cell-based, human; conditions: SK-MEL-5
OVCAR-3 = test: NCI-60 SRB screen: ovarian cancer OVCAR-3; type: cell-based, human; conditions: OVCAR-3
OVCAR-4 = test: NCI-60 SRB screen: ovarian cancer OVCAR-4; type: cell-based; conditions: Homo sapiens; OVCAR-4; five concentrations, 48 h, SRB; read-out: GI50
OVCAR-5 = test: NCI-60 SRB screen: ovarian cancer OVCAR-5; type: cell-based, human; conditions: OVCAR-5
NCI/ADR-RES = test: NCI-60 SRB screen: ovarian cancer NCI/ADR-RES; type: cell-based, human
786-0 = test: NCI-60 SRB screen: renal cancer 786-0; type: cell-based, human; conditions: 786-0
A498 = test: NCI-60 SRB screen: renal cancer A498; type: cell-based, human; conditions: A498
SN12C = test: NCI-60 SRB screen: renal cancer SN12C; type: cell-based, human
PC-3 = test: NCI-60 SRB screen: prostate cancer PC-3; type: cell-based, human; conditions: PC-3
DU-145 = test: NCI-60 SRB screen: prostate cancer DU-145; type: cell-based, human; conditions: DU-145
MDA-MB-231/ATCC = test: NCI-60 SRB screen: breast cancer MDA-MB-231/ATCC; type: cell-based; conditions: Homo sapiens, 48 h
T-47D = test: NCI-60 SRB screen: breast cancer T-47D; type: cell-based, human; conditions: T-47D
[1] = tested on: 60 human tumor cell lines; test: cells
Leukemia subpanel = test: NCI-60 screen, subpanel Leukemia
Melanoma subpanel = test: NCI-60 screen, subpanel Melanoma
Ovarian Cancer subpanel = test: NCI-60 screen, subpanel Ovarian Cancer
Prostate cancer subpanel = test: NCI-60 screen, subpanel Prostate cancer
[2] = single dose 10 µM, read-out: Percentage Cell Growth
[3] = five concentrations, SRB, read-out: GI50
[4] = Homo sapiens, five concentrations, 48 h, SRB, read-out: GI50

## C=C(C)[C@@H]1CC[C@]2(C(=O)NCCCN)CC[C@]3(C)[C@H](CC[C@@H]4[C@@]5(C)CCC(=O)C(C)(C)[C@@H]5CC[C@]43C)[C@@H]12 [Compound 10]
CCRF-CEM; [2]
  activity at 10 µM: 1.39%
CCRF-CEM; [3]
  GI50: 22.1 µM
K-562; Homo sapiens, K562, five concentrations, 48 h, SRB, read-out: GI50
  GI50: 9.84 µM
K-562; single dose 10 µM
  Percentage Cell Growth: 1.10%
MOLT-4; [2]
  activity at 10 µM: 2.76%
MOLT-4; [3]
  GI50: 12.9 µM
RPMI-8226; [2]
  activity at 10 µM: -6.66%
RPMI-8226; [3]
  GI50: 17.2 µM
EKVX; [4]
  GI50: 23.3 µM
EKVX; single dose 10 µM
  Percentage Cell Growth: −15.68%
HOP-62; single dose 10 µM
  Percentage Cell Growth: −26.80%
HOP-62; [4]
  GI50: 18.3 µM
HOP-92; single dose 10 µM
  Percentage Cell Growth: −55.49%
HOP-92; [4]
  GI50: 10.8 µM
NCI-H226; [4]
  GI50: 21.2 µM
NCI-H226; single dose 10 µM
  Percentage Cell Growth: 36.64%
NCI-H23; [4]
  GI50: 22.6 µM
NCI-H23; single dose 10 µM
  Percentage Cell Growth: −8.47%
NCI-H522; [4]
  GI50: 21 µM
NCI-H522; single dose 10 µM
  Percentage Cell Growth: −16.98%
HCC-2998; single dose 10 µM
  Percentage Cell Growth: −23.40%
HCC-2998; [4]
  GI50: 21.4 µM
HCT-116; [2]
  activity at 10 µM: 1.97%
HCT-116; [3]
  GI50: 13.9 µM
SW-620; [2]
  activity at 10 µM: -36.2%
SW-620; [3]
  GI50: 22.5 µM
SNB-75; [4]
  GI50: 32.1 µM
SNB-75; single dose 10 µM
  Percentage Cell Growth: −51.56%
U251; U-251, 48 h, single dose 10 µM, read-out: Percentage Cell Growth
  activity at 10 µM: -13.8%
U251; U-251, five concentrations, 48 h, SRB, read-out: GI50
  GI50: 17.7 µM
MDA-MB-435; [4]
  GI50: 28.7 µM
MDA-MB-435; single dose 10 µM
  Percentage Cell Growth: −32.41%
SK-MEL-28; [4]
  GI50: 22.1 µM
SK-MEL-28; single dose 10 µM
  Percentage Cell Growth: −31.42%
SK-MEL-5; [4]
  GI50: 19.4 µM
SK-MEL-5; single dose 10 µM
  Percentage Cell Growth: −23.93%
OVCAR-3; [4]
  GI50: 15.7 µM
OVCAR-3; single dose 10 µM
  Percentage Cell Growth: −45.89%
OVCAR-4
  GI50: 25.6 µM
OVCAR-5; [4]
  GI50: 14.8 µM
OVCAR-5; single dose 10 µM
  Percentage Cell Growth: −47.68%
NCI/ADR-RES; [4]
  GI50: 24.8 µM
NCI/ADR-RES; single dose 10 µM
  Percentage Cell Growth: −9.52%
786-0; single dose 10 µM
  Percentage Cell Growth: −22.61%
786-0; [4]
  GI50: 23.2 µM
A498; single dose 10 µM
  Percentage Cell Growth: −44.82%
A498; [4]
  GI50: 22.9 µM
SN12C; [4]
  GI50: 20.8 µM
SN12C; single dose 10 µM
  Percentage Cell Growth: −34.74%
PC-3; [4]
  GI50: 12.6 µM
PC-3; single dose 10 µM
  Percentage Cell Growth: −53.78%
DU-145; single dose 10 µM
  Percentage Cell Growth: −100.00%
DU-145; [4]
  GI50: 17.5 µM
MDA-MB-231/ATCC; MDA-MB-231/ATCC, single dose 10 µM, read-out: Percentage Cell Growth
  activity at 10 µM: -47.8%
MDA-MB-231/ATCC; MDA-MB-231, MDA-MB-31/ATCC, five concentrations, SRB, read-out: GI50
  GI50: 21.1 µM
T-47D; Homo sapiens, T47D, five concentrations, 48 h, SRB, read-out: GI50
  GI50: 13.1 µM
T-47D; single dose 10 µM
  Percentage Cell Growth: −12.76%
[1]; read-out: GI50 ranges against all panels of NCI60
  GI50: 6.95 to 38.9 µM
[1]; read-out: MID a, average sensitivity of all cell line (GI50-MID)
  GI50: 20.5 µM
Leukemia subpanel
  MID b, average sensitivity of all cell line of particular subpanel: 14.59 µM
  Selectivity, ratio MID a: MID b: 1.40
Melanoma subpanel
  MID b, average sensitivity of all cell line of particular subpanel: 24.33 µM
  Selectivity, ratio MID a: MID b: 0.84
Ovarian Cancer subpanel
  MID b, average sensitivity of all cell line of particular subpanel: 24.63 µM
  Selectivity, ratio MID a: MID b: 0.83
Prostate cancer subpanel
  MID b, average sensitivity of all cell line of particular subpanel: 15.05 µM
  Selectivity, ratio MID a: MID b: 1.36

Source: publication PMC7587962, “Evaluation of Cytotoxicity and α-Glucosidase Inhibitory Activity of Amide and Polyamino-Derivatives of Lupane Triterpenoids” (Molecules, 2020)
